Where two headings read alike, the source gives them in different places.
Legend:
[1] = tested on: Mycosphaerella graminicola; anamorph: Septoria tritici; Bayer code SEPTTR; assay: Fungicidal activity: leaf blotch of wheat, one-day protectant and three-day curative tests on wheat plants; format: in vivo, Septoria tritici on wheat plants (variety Yuma); details: Zymoseptoria tritici
Experimental: Evaluation of Fungicidal Activity: Leaf Blotch of Wheat (Mycosphaerella graminicola; anamorph: Septoria tritici; Bayer code […]) Wheat plants (variety Yuma) were grown from seed in a greenhouse in 50% mineral soil/50% soil-less Metro mix until the first leaf was fully emerged, with 7-10 seedlings per pot. These plants were inoculated with an aqueous spore suspension of Septoria tritici either prior to or after fungicide treatments. After inoculation the plants were kept in 100% relative humidity (one day in a dark dew chamber followed by two to three days in a lighted dew chamber) to permit spores to germinate and infect the leaf. The plants were then transferred to a greenhouse for disease to develop. The following table presents the activity of typical compounds of the present disclosure when evaluated in these experiments. The effectiveness of the test compounds in controlling disease was determined by assessing the severity of disease on treated plants, then converting the severity to percent control based on the level of disease on untreated, inoculated plants.

[2] = 24 h, One-Day Protectant (1DP), 100 ppm, wheat plants, percent control relative to untreated, inoculated plants, read-out: SEPTTR 100 PPM 1DP (% disease control rating)
[3] = 72 h, Three-Day Curative (3DC), 100 ppm, wheat plants, percent control relative to untreated, inoculated plants, read-out: SEPTTR 100 PPM 3DC (% disease control rating)
[4] = 24 h, read-out: SEPTTR 100 PPM 1DP (% disease control rating)
[5] = 72 h, read-out: SEPTTR 100 PPM 3DC (% disease control rating)

| Compound | pest or weed control at 100 ppm [1, 2] [%] | pest or weed control at 100 ppm [1, 3] [%] | melting point [°C] | pest or weed control at 100 ppm [1, 4] [%] | pest or weed control at 100 ppm [1, 5] [%] |
| --- | --- | --- | --- | --- | --- |
| Nc1nc(=O)n(C(=S)Oc2ccccc2)cc1F [Compound 21, O-phenyl 4-amino-5-fluoro-2-oxopyrimidine-1(2H)-carbothioate] | 76 to 100 | 76 to 100 | 113 to 116 | – | – |
| CCCCCOC(=O)n1cc(F)c(N)nc1=O [Compound 19] | 76 to 100 | 76 to 100 | 125.9 to 128.2 | – | – |
| CCOC(=O)n1cc(F)c(N)nc1=O [Compound 3, ethyl 4-amino-5-fluoro-2-oxopyrimidine-1(2H)-carboxylate] | – | – | 190 to 193 | 76 to 100 | 76 to 100 |
| Nc1nc(=O)n(C(=O)OCCCCl)cc1F [Compound 14] | 76 to 100 | 76 to 100 | 145.1 to 146.3 | – | – |
| Nc1nc(=O)n(C(=O)OC2CCCC2)cc1F [Compound 20] | 76 to 100 | 76 to 100 | 139.8 to 140.6 | – | – |
| Nc1nc(=O)n(C(=O)Oc2ccccc2Cl)cc1F [Compound 8] | 76 to 100 | 76 to 100 | 222.5 to 224.6 | – | – |
| C=CCOC(=O)n1cc(F)c(N)nc1=O [Compound 17] | 76 to 100 | 76 to 100 | 258 to 260.4 | – | – |
| Nc1nc(=O)n(C(=O)Oc2ccc(Cl)cc2)cc1F [Compound 7] | 76 to 100 | 76 to 100 | 143.2 to 146.3 | – | – |
| CC(C)OC(=O)n1cc(F)c(N)nc1=O [Compound 4, isopropyl 4-amino-5-fluoro-2-oxopyrimidine-1(2H)-carboxylate] | – | – | 217 to 219 | 76 to 100 | 76 to 100 |
| Nc1nc(=O)n(C(=O)OCC(Cl)(Cl)Cl)cc1F [Compound 16] | 76 to 100 | 76 to 100 | 219.3 to 221.1 | – | – |
| Nc1nc(=O)n(C(=O)Oc2ccc(F)cc2)cc1F [Compound 9] | 76 to 100 | 76 to 100 | 156.8 to 158.2 | – | – |
| Nc1nc(=O)n(C(=O)OCCOCc2ccccc2)cc1F [Compound 12] | 76 to 100 | 76 to 100 | 142.8 to 145.1 | – | – |
| Nc1nc(=O)n(C(=O)Oc2ccccc2)cc1F [Compound 5, phenyl 4-amino-5-fluoro-2-oxopyrimidine-1(2H)-carboxylate] | – | – | 175 to 180 | 76 to 100 | 76 to 100 |
| COCCOC(=O)n1cc(F)c(N)nc1=O [Compound 15] | 76 to 100 | 76 to 100 | 94.2 to 96.3 | – | – |
| CN(C)/C=N/c1nc(=O)n(C(=O)OCc2ccccc2)cc1F [Compound 23] | – | – | 123.2 to 124.3 | – | – |
| COc1ccc(OC(=O)n2cc(F)c(N)nc2=O)cc1 [Compound 6] | 76 to 100 | 76 to 100 | 172.4 to 173.6 | – | – |
| CN(C)/C=N/c1nc(=O)n(C(=O)OC2CCCC2)cc1F [Compound 26] | – | – | 103.5 to 104.6 | – | – |
| Nc1nc(=O)n(C(=O)Oc2ccc3ccccc3c2)cc1F [Compound 18] | 76 to 100 | 76 to 100 | 165.8 to 168.1 | – | – |
| Cc1ccc(OC(=O)n2cc(F)c(N)nc2=O)cc1 [Compound 10] | 76 to 100 | 76 to 100 | 235 to 237 | – | – |
| Nc1nc(=O)n(C(=O)OCc2ccccc2Cl)cc1F [Compound 11] | 76 to 100 | 76 to 100 | 145.8 to 146.8 | – | – |
| COC(=O)n1cc(F)c(N)nc1=O [Compound 13] | 76 to 100 | 76 to 100 | 240 to 243 | – | – |
| Cc1ccc(OC(=O)n2cc(F)c(/N=C/N(C)C)nc2=O)cc1 [Compound 24] | – | – | 179 to 181.2 | – | – |
| Nc1nc(=O)n(C(=O)OCc2ccccc2)cc1F [Compound 2, benzyl 4-amino-5-fluoro-2-oxopyrimidine-1(2H)-carboxylate] | – | – | 212 to 215 | 76 to 100 | 76 to 100 |
| CN(C)/C=N/c1nc(=O)n(C(=O)OCC(C)(C)C)cc1F [Compound 1, 4-(dimethylamino-methyleneamino)-5-fluoro-2-oxo-2H-pyrimidine-1-carboxylic acid 2,2-dimethyl-propyl ester] | – | – | 162 to 164 | 76 to 100 | 76 to 100 |

From patent US8318758B2, “5-fluoro-2-oxopyrimidine-1(2H)-carboxylate derivatives” (Dow AgroSciences, LLC, priority 2009, dated 2012)
